# Data: patent US6670493B2, “Methods and compositions for treating diseases due to androgen deficiency with glucocorticoid receptor antagonist compounds and new compounds” (Jenapharm GmbH & Co. KG, priority 2001, dated 2003)
# Legend:
# [1] = tested on: male rats of the CD breeding line; assay: Serum testosterone level of rats after chronic dexamethasone treatment with or without RU 38486; format: in vivo, rat; details: for Serum Testosterone: day 9, average ± standard error
# Description: (§1) Sexually mature, 3-month old male rats of the CD breeding line (Charles River GmbH, Sulzfeld, Germany) were kept in groups of 4 animals under controlled illumination (light:darkness 12:12 hours) with free access to food and drinking water. After a 1-week adaptation, the animals were tested by exposure to ovarectomized, estrogen-treated females for the presence of male sexual behavior (G. Dörner, Hormones and brain differentiation, Elsevier, Amsterdam, 1976, pp. 126-132). […] The animals of the reference group received intraperitoneal injections of dexamethasone (Fortecortin: Merck, Darmstadt, Germany) daily according to the following schedule: 0.5 mg/kg on days 1 to 3, 1 mg/kg on days 4 to 6 and 1.5 mg/kg on days 7 to 9. The control animals were injected with placebo (0.9% sterile NaCl solution. In addition to the dexamethasone treatment, the experimental group received subcutaneous injections of the glucocorticoid receptor antagonist RU 38486 (Sigma, Deisenhofen, Germany) in sesame oil solution in a dose of 10 mg/kg daily according to the schedule given above.
# (§2) Male sexual behavior was evaluated on the ninth day by the method given above. After the behavior test, blood samples were taken from the retroorbital plexus for determining the serum testosterone level. The testosterone was determined with a commercial test formulation (IBL, Hamburg, Germany).
# [2] = tested on: male rats of the CD breeding line; assay: Male sexual behavior of rats after chronic dexamethasone treatment with or without RU 38486; format: in vivo, rat; details: for Male Sexual Behavior (Copulations in 5 minutes): day 9, average ± standard error
# Description: as §1, §2
# primary rat Leydig cells [3] = assay: Cell damage: activity of mitochondrial succinate dehydrogenase (WST-1 test) in primary rat Leydig cell cultures; format: cell-based
# Description: (§3) Testicular cells were prepared from the testicles of sexually mature, 12-week old, male Wistar rats by means of a collagenase treatment. Leydig cells were obtained from this preparation by a continuous Percoll gradient centrifugation.
# (§4) Freshly prepared Leydig cells were sown in microtiter plates in 100 μL of DMEM/F12 with phenol red (20,000) cells/well) with addition of 0.1% BSA, penicillin (100 U/ml) and streptomycin (100 μg/ml). After one hour, the medium was changed with addition of substance. For 18 hours, the Leydig cells were incubated with dexamethasone alone or together with glucocorticoid receptor antagonists (250 μL of DMEM/well with addition of penicillin (100 U/ml) and streptomycin (100 μg/ml)). […] Ethanol was used as solvent for dexamethasone and the glucocorticoid receptor antagonists; the final concentration of the ethanol was not more than 0.2%.
# Parallel to the testosterone measurement, cell damage was determined after the 26 hours by measuring the activity of the mitochondrial succinate dehydrogenase (WST-1 test, Böhringer, Mannheim).
# primary rat Leydig cells [4] = assay: hCG-stimulated testosterone production in primary rat Leydig cells treated with dexamethasone with or without glucocorticoid receptor antagonist (Elisa); format: cell-based; details: for Testosterone Production, Average value ± SD (%): hCG alone = 100, basal = 0
# Description: as §3, §4
# Aliquots of the supernatant were frozen at −70° C. Testosterone was measured with a commercial Elisa (IBL, Hamburg). The standard curve of testosterone Elisa was then adapted to the cell culture conditions.
# [5] = dexamethasone alone i.p. 0.5-1.5 mg/kg daily for 9 days
# [6] = hCG 0.5 ng/ml + 100 nM DEX alone
# [7] = hCG + 100 nM DEX + glucocorticoid receptor antagonist 1 μm
# [8] = hCG 0.5 ng/ml + 100 nM DEX + glucocorticoid receptor antagonist 1 μm
# [9] = dexamethasone i.p. 0.5-1.5 mg/kg daily for 9 days + RU 38486 s.c. 10 mg/kg daily
# [10] = simultaneous administration of dexamethasone and RU 38486
Structure (SMILES),"Succinate Dehydrogenase Activity, Average value ± SD (primary rat Leydig cells [3]; [7]) [Absorptions Units]","Testosterone Production, Average value ± SD (primary rat Leydig cells [4]; [8]) [ng/mL]","Testosterone Production, Average value ± SD (%) (primary rat Leydig cells [4]; [8])",further results
"C[C@@H]1C[C@H]2[C@@H]3CCC4=CC(=O)C=C[C@]4(C)[C@@]3(F)[C@@H](O)C[C@]2(C)[C@@]1(O)C(=O)CO [DEX, dexamethasone]",–,–,–,"Serum Testosterone [1, 5]: 2.3 ± 0.2 ng/mL; Male Sexual Behavior (Copulations in 5 minutes) [2, 5]: 4.0 ± 0.9 Copulations in 5 minutes; Effect on mitochondrial succinate dehydrogenase activity (in words) (primary rat Leydig cells [3]; dexamethasone 10^-7 M): significant inhibition of the mitochondrial activity; Succinate Dehydrogenase Activity, Average value ± SD (primary rat Leydig cells [3]; [6]): 0.192 ± 0.036 Absorptions Units; Testosterone Production, Average value ± SD (primary rat Leydig cells [4]; [6]): 2.00 ± 0.58P ng/ml; Testosterone Production, Average value ± SD (%) (primary rat Leydig cells [4]; [6]): 44.63 ± 14.08P %"
"COCC1(OC)CCC2C3CCC4=CC(=O)CCC4=C3C(c3ccc(C(=NO)C(F)(F)F)cc3)CC21C (stereo not drawn) [GRA1, 4-(17β-methoxy-17α-(methoxymethyl)-estra-4,9-diene-3-one-11β-yl]2,2,2-trifluoroacetophenone-1(Z)-oxime]",0.289 ± 0.040,3.57 ± 0.83,83.00 ± 20.40,–
C[C@]12C[C@H](c3ccc4c(c3)OCO4)C3=C4CCC(=O)C=C4CC[C@H]3[C@@H]1CC[C@@]2(O)C#Cc1ccc(S(C)(=O)=O)cc1 [GRA2],0.363 ± 0.032,3.48 ± 0.64,80.97 ± 15.47,–
"CC12CC(c3ccc(C=NO)cc3)C3=C4CCC(=O)C=C4CCC3C1CCC2(O)C#Cc1ccc(S(C)(=O)=O)cc1 (stereo not drawn) [GRA3, 4-[17β-hydroxy-17α,21-(4′-methylsulfonylphenyl)-19-nor-3-oxopregna-4,9-diene-20-yn-11β-yl]benzaldehyde-1(E)-oxime]",0.313 ± 0.018,4.52 ± 1.01,106.30 ± 24.75,–
"CC#C[C@]1(O)CC[C@H]2[C@@H]3CCC4=CC(=O)CCC4=C3[C@@H](c3ccc(N(C)C)cc3)C[C@@]21C [RU38486, 11β-dimethylaminophenyl-17β-hydroxy-17α-propinyl-estra-4,9-diene-3-one]",0.311 ± 0.031,4.48 ± 1.14,105.23 ± 27.83,"Serum Testosterone [1, 9]: 20.2 ± 4.9 ng/mL; Effect on serum testosterone concentration (in words) [1, 10]: prevented the reduction in the serum testosterone concentration; Male Sexual Behavior (Copulations in 5 minutes) [2, 9]: 9.2 ± 1.0 Copulations in 5 minutes; Effect on male sexual behavior (in words) [2, 10]: retention of male sexual behavior at the level of the placebo group"
